These results are taken from ChEMBL document CHEMBL1121763, “2,3-Dihydrobenzofuran-2-ones: a new class of highly potent antiinflammatory agents” (J Med Chem, 1981).

Experiment [1] concerns the target Cyclooxygenase (Bos taurus).
The species named for experiment [2] is Rattus norvegicus. The experiment is described as follows: animal or person. In kind it is functional. Conditions: po, 3 h.
Description: Compound administered perorally for inhibition of carrageenan induced paw edema after 3h in rat
For experiment [3], the system named is Rattus norvegicus. Kind of experiment: Inhibition of adjuvant-induced polyarthritis in rat following p.o. administration. In kind it is functional. Conditions: po.

As to `Cc1cc2c(cc1C1CCCCC1)OC(=O)C2`, the IC50 (commonly the concentration needed to halve the response being measured) in experiment [1] turned out to be 100 nM. Besides, the results for the ED50 in the experiment listed under Rattus norvegicus [2] and with Rattus norvegicus [3] were 3 mg/kg and 1.5 mg/kg, respectively.

Take `O=C1Cc2cc(Cl)c(-c3ccccc3)cc2O1`: the IC50 in experiment [1] is 80 nM. In addition, the ED50 – broadly, the dose that gives a 50% effect, or the effect in half of the subjects – in the experiment filed under Rattus norvegicus [2] was found to be 1 mg/kg; in the experiment with Rattus norvegicus [3], 3 mg/kg.

In experiment [1], `O=C1Cc2cc(Cl)c(C3CCCCC3)cc2O1` [CLOFURAC] showed a 50% inhibitory concentration (IC50) of 50 nM. Also, the ED50 worked out at 0.5 mg/kg in the experiment filed under Rattus norvegicus [2] and 1 mg/kg in the experiment with Rattus norvegicus [3].

In experiment [1], `O=C1Cc2cccc(C3CCCCC3)c2O1` had an IC50 of 100000 nM. Also, the ED50 in the experiment listed under Rattus norvegicus [2] was above 60 mg/kg; in the experiment on Rattus norvegicus [3], above 30 mg/kg.

`Cc1cc2c(cc1C1CCCCC1)OC(=O)C2C` (configuration not stated) yielded a half-maximal inhibitory concentration (IC50) in experiment [1] of 100 nM. Further, the results for the ED50 in the experiment filed under Rattus norvegicus [2] and in the experiment with Rattus norvegicus [3] were 6 mg/kg and below 3 mg/kg, respectively.

Consider `O=C1Cc2cc(Cl)c(C3CCCCC3)c(Cl)c2O1`, for which the IC50 in experiment [1] was 1000 nM. Also, the median effective dose (ED50) was 2 mg/kg in the experiment listed under Rattus norvegicus [2] and 30 mg/kg with Rattus norvegicus [3].

In experiment [1], `CCC1C(=O)Oc2cc(-c3ccccc3)ccc21` (configuration not stated) had an IC50 of 50000 nM. Besides, the 50% effective dose (ED50) in the experiment filed under Rattus norvegicus [2] is 25 mg/kg; with Rattus norvegicus [3], above 30 mg/kg.

`O=C1Cc2ccc(C3CCCCC3)cc2O1` returned an IC50 in experiment [1] of 800 nM. Besides, the values for the 50% effective dose (ED50) in the experiment listed under Rattus norvegicus [2] and with Rattus norvegicus [3] were 1 mg/kg and 20 mg/kg, respectively.

As to `CC1C(=O)Oc2cc(C3CCCCC3)ccc21` (configuration not stated), the concentration for half-maximal inhibition (IC50) in experiment [1] was found to be 400 nM. In addition, the ED50 in the experiment listed under Rattus norvegicus [2] turned out to be 0.8 mg/kg; with Rattus norvegicus [3] it was 2.5 mg/kg.

In experiment [1], `O=C1Cc2cc(C3CCCCC3)ccc2O1` had an IC50 of 10000 nM. The compound further had a median effective dose (ED50) in the experiment filed under Rattus norvegicus [2] above 60 mg/kg.

Compound `O=C1Cc2ccc(C3CCCCC3)c(Br)c2O1` yielded a half-inhibitory concentration (IC50) in experiment [1] of 3000 nM. Further, the median effective dose (ED50) was 36 mg/kg in the experiment filed under Rattus norvegicus [2] and above 30 mg/kg in the experiment on Rattus norvegicus [3].

The compound `O=C1Cc2ccccc2O1` yielded an IC50 in experiment [1] above 100000 nM. For the same compound, in the experiment listed under Rattus norvegicus [2], the ED50 was above 60 mg/kg.

In experiment [1], `COc1cc2c(cc1-c1ccccc1)OC(=O)C2` had an IC50 of 10000 nM. The 50% effective dose (ED50) in the experiment listed under Rattus norvegicus [2] and in the experiment with Rattus norvegicus [3] was 30 mg/kg each time.

For `O=C(O)Cc1ccccc1Nc1c(Cl)cccc1Cl` [DICLOFENAC], the 50% effective dose (ED50) in the experiment listed under Rattus norvegicus [2] is 3 mg/kg; with Rattus norvegicus [3] it was 2 mg/kg.

As for `O=C1Cc2cc(Br)c(C3CCCCC3)cc2O1`, in experiment [1], the 50% inhibitory concentration (IC50) worked out at 30 nM. Besides, the ED50 in the experiment filed under Rattus norvegicus [2] worked out at 2 mg/kg; in the experiment on Rattus norvegicus [3], 7 mg/kg.

Regarding `COc1ccc2c(c1)c(CC(=O)O)c(C)n2C(=O)c1ccc(Cl)cc1` [INDOMETHACIN], the ED50 in the experiment filed under Rattus norvegicus [2] turned out to be 2 mg/kg; with Rattus norvegicus [3] it was 0.4 mg/kg.

In turn, `CC1C(=O)Oc2cc(C3CCCCC3)c(Cl)cc21` (configuration not stated) came in with an IC50 in experiment [1] of 70 nM. The 50% effective dose (ED50) in the experiment filed under Rattus norvegicus [2] turned out to be 0.3 mg/kg; in the experiment with Rattus norvegicus [3], 1 mg/kg.

In experiment [1], `O=C1Cc2ccc(-c3ccccc3)cc2O1` displayed an IC50 of 700 nM. Moreover, the ED50 in the experiment filed under Rattus norvegicus [2] amounted to 6 mg/kg; in the experiment with Rattus norvegicus [3] it was 20 mg/kg.

For `O=C1Cc2cc(O)c(-c3ccccc3)cc2O1`, the half-maximal inhibitory concentration (IC50) in experiment [1] came to 50000 nM. In the experiment filed under Rattus norvegicus [2], the median effective dose (ED50) is above 30 mg/kg.

In the case of `CC(C)Cc1ccc2c(c1)OC(=O)C2`, the concentration for half-maximal inhibition (IC50) in experiment [1] was 3000 nM. In addition, the ED50 in the experiment filed under Rattus norvegicus [2] is 8 mg/kg; in the experiment with Rattus norvegicus [3], above 40 mg/kg.

Take `CC1C(=O)Oc2cc(-c3ccccc3)c(Cl)cc21` (configuration not stated): the concentration for half-maximal inhibition (IC50) in experiment [1] was determined as 80 nM. Moreover, the results for the median effective dose (ED50) in the experiment filed under Rattus norvegicus [2] and in the experiment on Rattus norvegicus [3] were 0.3 mg/kg and 2 mg/kg, respectively.

Compound `CC1C(=O)Oc2cc(-c3ccccc3)ccc21` (configuration not stated) registered an IC50 in experiment [1] of 500 nM. The ED50 in the experiment filed under Rattus norvegicus [2] worked out at 2.5 mg/kg; with Rattus norvegicus [3] it was 14 mg/kg.

In experiment [1], `O=C1Cc2cc([N+](=O)[O-])c(C3CCCCC3)cc2O1` gave an IC50 of 500 nM. Moreover, the ED50 in the experiment listed under Rattus norvegicus [2] was 6 mg/kg; in the experiment on Rattus norvegicus [3] it was 4 mg/kg.

In experiment [1], `O=C1Cc2ccc(C3CCCC3)cc2O1` gave an IC50 of 10000 nM. In addition, the values for the median effective dose (ED50) in the experiment listed under Rattus norvegicus [2] and with Rattus norvegicus [3] were 30 mg/kg and 60 mg/kg, respectively.
